Test results: ChEMBL document CHEMBL1201862, “PubChem BioAssay data set” (2004)
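Compound exposure: 48 hours, 5 concentrations, 96-well plates. The concentration for 50% growth inhibition is given as GI50.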 Active and inactive are the calls of the source. Rule as the data show it: active = GI50 up to about 1.1 µM and inactive = higher. Non-standard residues stand in square brackets, D forms with d. Residues, ends and D or L forms follow the SMILES beside them. ξ: configuration not given here. *: point of attachment. NMeY = CN[C@@H](Cc1ccc(O)cc1)C(=O)O; Cbz = O=C(OCc1ccccc1)*; ξA = CC(N)C(=O)O

Experiments:
Test in all cases: NCI-60 cell line screen, 48 h
OVCAR-3 = tested on: OVCAR-3
NCI-H23 = tested on: NCI-H23
NCI-H460 = tested on: NCI-H460
PC-3 = tested on: PC-3
SW-620 = tested on: SW-620
SNB-19 = tested on: SNB-19
HL-60 = tested on: HL-60
M14 = tested on: M14
UO-31 = tested on: UO-31
BT-549 = tested on: BT-549
Hs-578T = tested on: Hs-578T
HCT-116 = tested on: HCT-116
HCC 2998 = tested on: HCC 2998
COLO 205 = tested on: COLO 205
SF-539 = tested on: SF-539
MDA-MB-231 = tested on: MDA-MB-231
A549 = tested on: A549
SNB-75 = tested on: SNB-75
UACC-62 = tested on: UACC-62
HOP-92 = tested on: HOP-92

Measured: GI50

CCOC(=O)Cc1nc2c(O)ncnc2n1C1OC(COC(C)=O)C(OC(C)=O)C1OC(C)=O (stereo not given)
inactive: OVCAR-3 > 100 µM | NCI-H23 > 100 µM | NCI-H460 > 100 µM | PC-3 > 100 µM | SW-620 > 100 µM | SNB-19 > 100 µM | HL-60 > 100 µM | M14 > 100 µM | UO-31 > 100 µM | BT-549 > 100 µM | Hs-578T > 100 µM | HCT-116 > 100 µM | HCC 2998 > 100 µM | COLO 205 > 100 µM | SF-539 > 100 µM | MDA-MB-231 > 100 µM | A549 > 100 µM | SNB-75 > 100 µM | UACC-62 > 100 µM | HOP-92 > 100 µM

Cc1csc2c(P(=O)(OC(C)C)OC(C)C)c(-c3ccccc3)cn12
inactive: OVCAR-3 14.4 µM | NCI-H23 19.1 µM | NCI-H460 16.5 µM | PC-3 14.8 µM | SW-620 18.3 µM | SNB-19 15.1 µM | HL-60 19 µM | M14 18.4 µM | UO-31 15.3 µM | BT-549 18.8 µM | Hs-578T 17.1 µM | HCT-116 14.2 µM | HCC 2998 14.6 µM | COLO 205 18.7 µM | SF-539 18.3 µM | MDA-MB-231 17 µM | A549 16.6 µM | SNB-75 14.5 µM | UACC-62 6.62 µM | HOP-92 16.7 µM

Cc1cc(=O)n2nc(CSc3nnc(N)s3)sc2n1
inactive: OVCAR-3 > 100 µM | NCI-H23 > 100 µM | NCI-H460 > 100 µM | PC-3 > 100 µM | SW-620 > 100 µM | SNB-19 > 100 µM | HL-60 > 100 µM | M14 > 100 µM | UO-31 > 100 µM | BT-549 > 100 µM | Hs-578T > 100 µM | HCT-116 > 100 µM | HCC 2998 > 100 µM | COLO 205 > 100 µM | SF-539 > 100 µM | MDA-MB-231 > 100 µM | A549 > 100 µM | SNB-75 > 100 µM | UACC-62 > 100 µM | HOP-92 > 100 µM

COc1ccc(/C(=N/O)c2ccccc2-c2nc3ccccc3c(=O)n2-c2ccc(S(=O)(=O)Nc3ncccn3)cc2)cc1C
inactive: OVCAR-3 15.8 µM | NCI-H23 12 µM | NCI-H460 15.6 µM | PC-3 19.7 µM | SW-620 18 µM | SNB-19 20.8 µM | HL-60 11.8 µM | M14 17.1 µM | UO-31 19.6 µM | BT-549 17.6 µM | Hs-578T 29.4 µM | HCT-116 12.7 µM | HCC 2998 10.2 µM | COLO 205 18.9 µM | SF-539 13.2 µM | MDA-MB-231 18.4 µM | A549 17.4 µM | SNB-75 14.2 µM | UACC-62 12.1 µM | HOP-92 8.73 µM

O=c1ssc2c1Nc1c(ssc1=O)S2
inactive: OVCAR-3 17.4 µM | NCI-H23 18.7 µM | NCI-H460 17.3 µM | PC-3 12.6 µM | SW-620 8.61 µM | SNB-19 17.9 µM | HL-60 4.48 µM | M14 11.7 µM | UO-31 11.4 µM | BT-549 25.3 µM | Hs-578T 33.7 µM | HCT-116 15.4 µM | HCC 2998 15.1 µM | COLO 205 18 µM | SF-539 7.21 µM | MDA-MB-231 23.4 µM | A549 19.2 µM | SNB-75 16.5 µM | UACC-62 14 µM | HOP-92 15 µM

OCCCCCNc1cc(O)nc(O)n1
inactive: OVCAR-3 > 100 µM | NCI-H23 > 100 µM | NCI-H460 > 100 µM | PC-3 > 100 µM | SW-620 > 100 µM | SNB-19 > 100 µM | HL-60 > 100 µM | M14 > 100 µM | UO-31 > 100 µM | BT-549 > 100 µM | Hs-578T > 100 µM | HCT-116 > 100 µM | HCC 2998 > 100 µM | COLO 205 > 100 µM | SF-539 > 100 µM | MDA-MB-231 > 100 µM | A549 > 100 µM | SNB-75 > 100 µM | UACC-62 > 100 µM | HOP-92 > 100 µM

COc1ccc(C[C@@H](C(=O)NCC(N)=O)N(C)C(=O)[C@@H]2CCCN2C(=O)[C@H](CC(C)C)NC(=O)C(C)NC(=O)OCc2ccccc2)cc1 (stereo not given in full) (Cbz-[ξA]LP[NMeY](Me)G-NH2)
inactive: OVCAR-3 > 100 µM | NCI-H23 > 100 µM | NCI-H460 > 100 µM | PC-3 > 100 µM | SW-620 > 100 µM | SNB-19 > 100 µM | HL-60 > 100 µM | M14 > 100 µM | UO-31 > 100 µM | BT-549 > 100 µM | Hs-578T > 100 µM | HCT-116 > 100 µM | HCC 2998 > 100 µM | COLO 205 > 100 µM | SF-539 > 100 µM | MDA-MB-231 > 100 µM | A549 > 100 µM | SNB-75 > 100 µM | UACC-62 > 100 µM | HOP-92 > 100 µM

COc1ccc(C2SCC(=O)N2NC(=O)C(C)Oc2ccc(Cl)cc2Cl)cc1 (stereo not given)
inactive: OVCAR-3 66.2 µM | NCI-H23 64.9 µM | NCI-H460 81.1 µM | PC-3 27.4 µM | SW-620 > 100 µM | SNB-19 35 µM | HL-60 14.2 µM | M14 51.2 µM | UO-31 88.5 µM | BT-549 23.7 µM | Hs-578T 34.5 µM | HCT-116 36.6 µM | HCC 2998 55.6 µM | COLO 205 73.8 µM | SF-539 17 µM | MDA-MB-231 26.7 µM | A549 31.6 µM | SNB-75 22 µM | UACC-62 33.9 µM | HOP-92 21.1 µM

COc1ccc(NC(/C(C(=O)c2ccccc2)=C(\O)C(=O)/C=C(\O)c2ccccc2)c2ccc(OC)cc2)cc1 (stereo not given)
inactive: OVCAR-3 21.6 µM | NCI-H23 47 µM | NCI-H460 43.6 µM | PC-3 39.3 µM | SNB-19 65.8 µM | HL-60 34.1 µM | M14 23.2 µM | UO-31 53.6 µM | BT-549 71.6 µM | Hs-578T 36 µM | HCT-116 35.8 µM | HCC 2998 26.6 µM | COLO 205 31 µM | SF-539 38.8 µM | MDA-MB-231 > 100 µM | A549 28.6 µM | SNB-75 17.8 µM | UACC-62 52.4 µM | HOP-92 7.6 µM

Cc1ccc2nc(Cl)c(/C=N/N3C(=O)/C(=C/c4ccccc4S)N=C3c3ccccc3)cc2c1
inactive: OVCAR-3 4.8 µM | NCI-H460 31.4 µM | PC-3 38.3 µM | SW-620 39.2 µM | SNB-19 52.8 µM | HL-60 15.5 µM | M14 23.3 µM | UO-31 21.9 µM | BT-549 49.5 µM | Hs-578T 22.3 µM | HCT-116 30.1 µM | HCC 2998 45.3 µM | COLO 205 28.2 µM | SF-539 15.2 µM | MDA-MB-231 > 100 µM | A549 33.4 µM | SNB-75 22.1 µM | UACC-62 38.7 µM | HOP-92 73.6 µM

[O-][Cl+3]([O-])([O-])[O-].[O-][Cl+3]([O-])([O-])[O-].c1ccn2c(N3CCOCC3)[n+]3c4ccccc4[n+]4c(N5CCOCC5)n5ccccc5c4c3c2c1
inactive: OVCAR-3 > 100 µM | NCI-H23 > 100 µM | NCI-H460 > 100 µM | PC-3 > 100 µM | SW-620 > 100 µM | SNB-19 63.2 µM | HL-60 71.6 µM | M14 > 100 µM | BT-549 > 100 µM | Hs-578T 33.7 µM | HCT-116 > 100 µM | HCC 2998 > 100 µM | COLO 205 49.9 µM | SF-539 65.3 µM | MDA-MB-231 > 100 µM | A549 > 100 µM | SNB-75 28.5 µM | UACC-62 > 100 µM | HOP-92 > 100 µM

CC(=O)Oc1cc(OC(C)=O)c2c(c1C)CC[C@@H]1[C@@H]2CC[C@]2(C)[C@@H](OC(C)=O)CC[C@@H]12
inactive: OVCAR-3 17.3 µM | NCI-H23 20.2 µM | NCI-H460 19.3 µM | PC-3 15.6 µM | SW-620 18.9 µM | SNB-19 18.6 µM | HL-60 19.1 µM | M14 19.5 µM | UO-31 17.5 µM | BT-549 18.5 µM | Hs-578T 21.9 µM | HCT-116 15.8 µM | HCC 2998 20.7 µM | SF-539 16.1 µM | MDA-MB-231 16.1 µM | A549 18.5 µM | SNB-75 22.5 µM | UACC-62 18.7 µM | HOP-92 20.4 µM

COC(=O)CN(CC1O[C@@H]2OC(C)(C)O[C@@H]2C1NC(C)=O)C(=O)OCc1ccccc1 (stereo not given in full)
inactive: OVCAR-3 > 100 µM | NCI-H460 > 100 µM | PC-3 > 100 µM | SW-620 > 100 µM | SNB-19 > 100 µM | HL-60 > 100 µM | M14 > 100 µM | UO-31 > 100 µM | BT-549 59.8 µM | Hs-578T > 100 µM | HCT-116 > 100 µM | HCC 2998 > 100 µM | COLO 205 > 100 µM | SF-539 > 100 µM | MDA-MB-231 > 100 µM | A549 > 100 µM | SNB-75 > 100 µM | UACC-62 > 100 µM | HOP-92 > 100 µM
